For assay [1], the target named is T1, Kv1.7/I386C mutant (Kv1.7∗) (Homo sapiens, UniProt Q96RP8, I386C).
T1 construct: expressed in transfected cells; host or cells: HEK293T
Nature of the assay: Gating-current recording, Kv1.7* in HEK293T cells. The assay is classed as cell-based. The following applies: for inhibition at 10 µM: HEK-293T. The protocol:
The cDNA of hKv1.1, hKv1.2, hKv1.3, rKv1.4, hKv1.5, mKv1.6, and hKv1.7 were subcloned into mammalian expression vectors pcDNA3.1 or pCMV-blank vectors, as well as other plasmids described previously ([35]). Channel mutants were generated by site-directed mutations. Briefly, the parental channel plasmid was amplified using a pair of oppositely directed primers harboring the designed mutation site, with KOD Fx (TOYOBO Co, Ltd). The resulting PCR mix was treated with FastDigest DpnI (Thermo Fisher Scientific) to remove the methylated template. Ten microliters of the digested product was then used to transform 100 μl E. coli DH5α competent cells. Transformants were randomly picked and sequenced to confirm the presence of the intended mutation.
CHO-K1 cells were selected for expressing Kv channels due to their lack of endogenous Kv channels, while HEK293 or ND7/23 cells were used for Nav and Cav channel expression. CHO-K1 cells were cultured in a Dulbecco's modified Eagle's medium/Ham's F-12 nutrient mixture (DMEM-F12) medium, and HEK293T and ND7/23 cells in DMEM medium, all supplemented with 10% fetal bovine serum and 1% penicillin-streptomycin (all from Gibco, Thermo Fisher Scientific, Inc) under standard conditions (37 °C, 5% CO2, and saturated humidity). These cell lines were purchased from Stem Cell Bank, Chinese Academy of Sciences. Channel plasmids were cotransfected with pEGFP-N1 (encoding GFP) into the respective cells using lipofectamine 2000, following the manufacturer's instructions (Invitrogen, Thermo Fisher Scientific, Inc.). Nav1.9-GFP plasmid was transfected into ND7/23 using the X-tremeGENE HP DNA Transfection Reagent (Roche). After 4 to 6 h transfection, cells were seeded onto poly-lysine–coated coverslips, and 24 to 36 h later, transfected cells were ready for patch-clamp analysis.
Patch clamp experiments were conducted using an electrophysiology platform comprising a MultiClamp 700B amplifier and an Axon Digidata 1550 AD/DA convertor (Axon Instruments). Data acquisition was performed with pClamp 10.5 software (Axon Instruments). All experiments were performed at room temperature.
Gating currents were recorded by transfecting HEK293T cells with a saturating dose of plasmid to ensure maximal channel expression. The Kv1.3/I472C and Kv1.7/I386C mutants were used to record the IgOFF, minimizing slow voltage sensor return as reported in previous studies ([28]). The bath solution contained (in mM) the following: 140 NMDG, 50 Hepes, 2 CaCl2, 2 MgCl2, 0.1 EDTA, and 0.01 CsCl (pH 7.3, adjusted with methanesulfonic acid), and the pipette solution contained (in mM) the following: 140 NMDG, 1 NMDG-Cl, 50 HF, 5 EGTA, and 50 Hepes (pH 7.3, adjusted with methanesulfonic acid). Gating charge movement (Q) was determined by integrating the area under the IgON and IgOFF traces, representing voltage sensor movement in response to depolarizing pulses. The data were normalized and plotted against voltage to generate Q-V curves, which were fitted using a Boltzmann function to estimate the voltage dependence of charge movement.

The subject of assay [2] is Kv1.4/Y416A. Nature of the assay: Whole-cell patch clamp, Tyr-to-Ala mutant homologous to Kv1.3 Y339. The assay is classed as cell-based, rat. The following applies: 10 μM MrVIII, +30 mV, 500 ms, holding −80 mV, mean ± SD, n = 4–6. The text has this:
Building on the identification of key amino acid residues in Kv1.3 channel that interact with MrVIII through alanine-scanning mutagenesis, we extended our analysis to explore these residues across other Kv1 subfamily channels. […] However, MrVIII retained substantial inhibitory potency on Kv1.2/Y266A mutant, albeit without fully blocking the channel current. […] The profound reduction in MrVIII's effect across homologous mutants supports the idea that it binds to a conserved region.
The cDNA of hKv1.1, hKv1.2, hKv1.3, rKv1.4, hKv1.5, mKv1.6, and hKv1.7 were subcloned into mammalian expression vectors pcDNA3.1 or pCMV-blank vectors, as well as other plasmids described previously ([35]). Channel mutants were generated by site-directed mutations. Briefly, the parental channel plasmid was amplified using a pair of oppositely directed primers harboring the designed mutation site, with KOD Fx (TOYOBO Co, Ltd). The resulting PCR mix was treated with FastDigest DpnI (Thermo Fisher Scientific) to remove the methylated template. […]
CHO-K1 cells were selected for expressing Kv channels due to their lack of endogenous Kv channels, while HEK293 or ND7/23 cells were used for Nav and Cav channel expression. […] After 4 to 6 h transfection, cells were seeded onto poly-lysine–coated coverslips, and 24 to 36 h later, transfected cells were ready for patch-clamp analysis. […]
On the technique in general: In patch-clamp work, channel activity is measured electrically.

The structures appear in SMILES notation. Like-named read-outs stand apart in the source and are kept apart here. Bridge positions count the residues as written; N and C are the ends. Peptide text beside a SMILES is read from it.

T1 sequence (Q96RP8 whole entry I386C): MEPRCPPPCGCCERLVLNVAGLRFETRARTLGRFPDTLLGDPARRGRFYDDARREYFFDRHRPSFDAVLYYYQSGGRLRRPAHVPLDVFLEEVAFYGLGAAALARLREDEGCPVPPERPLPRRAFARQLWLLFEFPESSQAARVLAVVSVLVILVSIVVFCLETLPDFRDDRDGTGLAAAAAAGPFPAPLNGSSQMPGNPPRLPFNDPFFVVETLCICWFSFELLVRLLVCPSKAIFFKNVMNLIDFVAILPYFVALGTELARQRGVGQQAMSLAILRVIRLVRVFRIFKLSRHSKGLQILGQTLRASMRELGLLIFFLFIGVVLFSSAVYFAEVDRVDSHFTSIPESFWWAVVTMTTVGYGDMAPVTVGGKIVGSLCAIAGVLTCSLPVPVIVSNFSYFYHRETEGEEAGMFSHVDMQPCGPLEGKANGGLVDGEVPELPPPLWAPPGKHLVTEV

For the compound `CC[C@H](C)[C@@H]1NC(=O)[C@H](Cc2ccc(O)cc2)NC(=O)[C@H](CCC(N)=O)NC(=O)[C@@H]2CCCN2C(=O)[C@@H]2CSSC[C@H](NC(=O)[C@H](C)NC(=O)[C@H](CO)NC(=O)[C@H](CCC(=O)O)NC(=O)[C@H](CCC(=O)O)NC(=O)[C@@H](N)[C@@H](C)O)C(=O)NCC(=O)NCC(=O)N[C@@H](Cc3ccccc3)C(=O)N[C@@H](CC(N)=O)C(=O)N[C@@H](C)C(=O)N[C@@H](CCCNC(=N)N)C(=O)N[C@H]3CSSC[C@H](NC1=O)C(=O)N[C@@H](CCCCN)C(=O)NCC(=O)N[C@@H](Cc1c[nH]c4ccccc14)C(=O)N[C@@H](CCCNC(=N)N)C(=O)N[C@@H]([C@@H](C)O)C(=O)N[C@@H](CCCCN)C(=O)N[C@@H](CCCNC(=N)N)C(=O)N[C@H](C(=O)N[C@@H](CC(C)C)C(=O)N[C@@H](CC(N)=O)C(=O)N1CCC[C@H]1C(=O)O)CSSC[C@H](NC(=O)[C@H](CCCCN)NC(=O)[C@H](Cc1c[nH]cn1)NC(=O)[C@H](CC(C)C)NC(=O)[C@@H]1CCCN1C3=O)C(=O)N2` [MrVIII] (H-TEESACGGFNARCPLHKCCPQYICKGWRTKRCLNP-OH; disulfide 6-19, 13-24, 18-32; N-terminus and C-terminus assumed), the “Va of Q-V curve of Kv1.7∗ after toxin” value in assay [1] (500 nM MrVIII, before toxin −6.4 ± 2.9 mV, mean ± SD, n = 5, SD) is −4.3 ± 3.8 mV. The “effect on IgON of Kv1.7∗” value in assay [1] (10 μM MrVIII, 500 ms depolarization) was “completely inhibited”. In addition, in assay [1] (+30 mV for 50 ms, held at −100 mV, HEK293T, mean ± SD, n = 11, SD, read-out: IC50, inhibition of IgON current of Kv1.7∗), the IC50 – broadly, the concentration at which inhibition is half-maximal – amounted to 214 ± 91.8 nM. In addition, the inhibition (in general, the change of the read-out against control, counted positive when it falls) at 10 µM was ~74.1% in assay [1] (10 μM MrVIII, 50 ms depolarization at +30 mV, mean ± SD, n = 11, SD, read-out: inhibition of IgOFF of Kv1.7∗) and 13.1 ± 5.5% in assay [1] (10 μM MrVIII, 500 ms depolarization, mean ± SD, n = 5, SD, read-out: inhibition rate of IgOFF of Kv1.7∗). Besides, the “inhibition of Kv1.4/Y416A current” value in assay [2] turned out to be 63.5 ± 18.4%.

For the origin of these results see article PMC11984586, “A novel spider toxin as a selective antagonist of the Kv1 subfamily of voltage-gated potassium channels through gating modulation” (The Journal of Biological Chemistry, 2025).
